The source of these data is patent US4642364A, “Unsaturated eicosanoic acids” (Hoffmann-La Roche Inc., priority 1986, dated 1987).

Experiment [1] concerns the target T1, Prostaglandin endoperoxide synthase (Ovis aries, UniProt P05979).
T1 construct: sheep seminal vesicular gland microsomes (SSVM) as the enzyme source; from tissue; host or cells: sheep seminal vesicular gland microsomes, acetone powder
T1 sequence (P05979 25-600): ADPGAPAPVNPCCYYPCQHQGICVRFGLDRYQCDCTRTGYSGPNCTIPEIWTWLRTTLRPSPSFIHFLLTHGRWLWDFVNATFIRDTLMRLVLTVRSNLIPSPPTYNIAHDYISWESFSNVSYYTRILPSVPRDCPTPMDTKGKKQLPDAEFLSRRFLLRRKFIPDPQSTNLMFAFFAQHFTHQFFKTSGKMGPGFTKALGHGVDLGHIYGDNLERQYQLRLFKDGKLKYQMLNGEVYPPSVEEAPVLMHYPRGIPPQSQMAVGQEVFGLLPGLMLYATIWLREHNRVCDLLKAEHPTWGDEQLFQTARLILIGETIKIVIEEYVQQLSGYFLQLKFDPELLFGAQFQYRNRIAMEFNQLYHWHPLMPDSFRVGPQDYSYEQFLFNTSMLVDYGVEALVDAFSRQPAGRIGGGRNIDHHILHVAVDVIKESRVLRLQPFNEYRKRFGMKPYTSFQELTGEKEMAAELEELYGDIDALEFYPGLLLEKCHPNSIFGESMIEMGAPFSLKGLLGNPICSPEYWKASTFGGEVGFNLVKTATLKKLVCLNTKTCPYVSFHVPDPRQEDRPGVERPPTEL
In words: Prostaglandin endoperoxide synthase (PES) assay, oxygen uptake with sheep seminal vesicular gland microsomes. The experiment is classed as biochemical. The note with it: 33 μM arachidonic acid, pH 8.5. On the procedure: The activity of PES was measured polarigraphically by following the disappearance of dissolved O2 from incubation mixtures containing arachidonic acid (AA) as substrate and sheep seminal vesicular gland microsomes (SSVM) as the enzyme source. Fifty mg of an acetone powder of SSVM were suspended, using a glass teflon homogenizer, in 1 ml of 0.1M tris. HCl (pH, 8.5) containing 0.67 mM phenol. This suspension of SSVM was incubated at room temperature in the presence of phenol to maximumly activate the PES and then the suspension was kept at 0°. Samples in a separate reaction vessel were each prepared by adding tris-phenol buffer (2.8 ml), 0.05 ml of the SSVM suspension, and a maximum of 0.12 ml of ethanol containing various concentrations of the test drug. […] Reaction vessels were then allowed to reach temperature equilibrium. An oxygen electrode is inserted into the vessel and then 24 μl of 4.1 mM AA are injected into the sealed vessel through a port on the side of the electrode. The final concentration of AA is 33 μM. Oxygen uptake is recorded and the initial rate of oxygen uptake used as a measure of PES activity. Each of the test compounds were tested initially at a high concentration (1 mM) and then, if required, dilutions are made. The mean percent inhibition was obtained for each concentration of the various test drugs by expressing as a percent the number obtained by dividing the difference of the oxygen uptake of the test sample by the oxygen uptake of the control. The concentration of test drug which inhibits the synthesis of PES by 50% (IC50) which is given in the following table was determined for each test drug from a plot of mean percent inhibition verses drug concentration. The difference of the oxygen uptake of test sample was obtained by subtracting from the oxygen uptake of the control, the oxygen uptake of the test sample.

Experiment [2] concerns SRS-A synthesis (Rat Peritoneal Cells). The note with it: statement on standard; cited from earlier work.
Experiment [3] has as its target T2, Δ^12-lipoxygenase (Human Platelet) (Homo sapiens, UniProt P18054).
T2 construct: using human platelets as the enzyme source; from tissue; host or cells: human platelets (washed, lysed by freezing and thawing; 100,000×g supernatant, 50% ammonium sulfate precipitate)
T2 sequence (P18054 1-663): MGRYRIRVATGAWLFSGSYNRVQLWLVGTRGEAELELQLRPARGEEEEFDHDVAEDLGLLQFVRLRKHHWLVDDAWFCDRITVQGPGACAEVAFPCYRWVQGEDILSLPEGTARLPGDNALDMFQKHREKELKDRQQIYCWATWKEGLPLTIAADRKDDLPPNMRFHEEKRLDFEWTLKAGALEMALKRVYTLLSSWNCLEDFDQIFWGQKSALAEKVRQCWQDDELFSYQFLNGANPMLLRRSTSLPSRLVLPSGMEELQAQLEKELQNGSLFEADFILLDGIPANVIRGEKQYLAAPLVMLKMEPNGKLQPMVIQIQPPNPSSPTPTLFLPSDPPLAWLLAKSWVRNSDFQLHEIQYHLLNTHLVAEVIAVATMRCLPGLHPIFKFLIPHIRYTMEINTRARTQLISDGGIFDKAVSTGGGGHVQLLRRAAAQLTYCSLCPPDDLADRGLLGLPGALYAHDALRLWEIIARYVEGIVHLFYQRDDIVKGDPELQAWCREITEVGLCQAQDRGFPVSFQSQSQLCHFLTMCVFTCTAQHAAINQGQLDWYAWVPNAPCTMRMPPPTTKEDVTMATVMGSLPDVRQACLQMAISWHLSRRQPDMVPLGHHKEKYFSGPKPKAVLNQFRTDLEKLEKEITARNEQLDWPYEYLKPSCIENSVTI
The note with it: statement on standard; cited from earlier work.

Experiment [4] concerns the target T1, Prostaglandin endoperoxide synthase. Particulars: statement on standard; cited from earlier work.

As usually defined, the IC50 is the concentration at which inhibition is half-maximal. A lower IC50 goes with greater potency.

The compound `CCCCCC#CCC#CCCCCCCCC(=O)O` [9,12-Octadecadiynoic Acid, reference compound] displayed a half-inhibitory concentration (IC50) in experiment [1] of 0.1 to 1 µM. The “inhibition of SRS-A synthesis (in words)” value in experiment [2] is listed as “potent standard inhibitor of SRS-A synthesis”. Moreover, in experiment [3], the “inhibition of Δ^12-lipoxygenase (in words)” value was “not being an inhibitor of Δ^12 lipoxygenase”. In addition, the “inhibition of prostaglandin endoperoxide synthase (in words)” value in experiment [4] is listed as “potent standard inhibitor”.
The compound `CCCCC/C=C\C/C=C\CC#CCC#CCCCC(=O)O` [Compound 3, (Z,Z)-11,14-eicosadien-5,8-diynoic acid] registered an IC50 in experiment [1] of 10 to 100 µM.
Take `CCCCCCCC/C=C\CC#CCC#CCCCC(=O)O` [Compound 5, (Z,Z)-11-eicosen-5,8-diynoic acid]: the IC50 in experiment [1] is > 100 µM.
The same measure, in the same setting: under `CCCCC/C=C\CCCCC#CCC#CCCCC(=O)O` [Compound 6, (Z)-14-eicosen-5,8-diynoic acid] stands > 100 µM.
